Test results from PMC7143535, “Synthesis, Pharmacological and Structural Characterization of Novel Conopressins from Conus miliaris” (Marine Drugs, 2020).
Where two headings read alike, the source gives them in different places. Residues, ends and D or L forms follow the SMILES beside them.

Tests used:
[1] = molecular target: T1, human vasopressin-1b receptor (hV1bR) (Homo sapiens, UniProt P47901); test: cell-based; format: cell-based
T1 construct: host or cells: COS-1
T1 sequence (P47901 1-424): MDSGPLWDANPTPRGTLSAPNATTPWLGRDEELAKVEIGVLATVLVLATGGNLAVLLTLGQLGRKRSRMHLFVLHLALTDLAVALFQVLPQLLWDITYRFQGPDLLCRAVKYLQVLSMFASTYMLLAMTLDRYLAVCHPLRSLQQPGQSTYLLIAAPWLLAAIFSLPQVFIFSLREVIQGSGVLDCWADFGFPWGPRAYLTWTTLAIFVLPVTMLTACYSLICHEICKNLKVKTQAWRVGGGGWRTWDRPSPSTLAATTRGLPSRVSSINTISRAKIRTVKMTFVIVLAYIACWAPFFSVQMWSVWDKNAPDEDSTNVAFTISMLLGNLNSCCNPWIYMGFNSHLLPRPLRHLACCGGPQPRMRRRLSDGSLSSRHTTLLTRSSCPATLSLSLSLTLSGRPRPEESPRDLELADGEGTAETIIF

[2] = molecular target: T2, zebrafish oxytocin/isotocin receptor (ZF oxy/isoR) (Danio rerio, UniProt E4W699); test: cell-based; format: cell-based
T2 construct: host or cells: COS-1
T2 sequence (E4W699 1-388): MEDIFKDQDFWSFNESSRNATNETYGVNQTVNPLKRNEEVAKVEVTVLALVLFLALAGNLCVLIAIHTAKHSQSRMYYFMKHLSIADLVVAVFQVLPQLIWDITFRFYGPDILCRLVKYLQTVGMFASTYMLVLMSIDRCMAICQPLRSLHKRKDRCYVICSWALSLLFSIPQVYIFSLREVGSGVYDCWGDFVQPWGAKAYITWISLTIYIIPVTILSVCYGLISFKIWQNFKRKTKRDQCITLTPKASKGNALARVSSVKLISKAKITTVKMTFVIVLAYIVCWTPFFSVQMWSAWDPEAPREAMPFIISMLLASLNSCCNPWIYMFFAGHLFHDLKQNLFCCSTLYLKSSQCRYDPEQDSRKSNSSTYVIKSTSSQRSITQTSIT

[3] = molecular target: zebrafish vasopressin1-a2 receptor (ZF V1a2R); format: cell-based, zebrafish (Danio rerio)
[4] = system: zebrafish vasopressin2 receptor (ZF V2R); format: cell-based, zebrafish (Danio rerio)
[5] = molecular target: T3, human oxytocin receptor (hOTR) (Homo sapiens, UniProt P30559); test: cell-based; format: cell-based
T3 construct: host or cells: COS-1
T3 sequence (P30559 1-389): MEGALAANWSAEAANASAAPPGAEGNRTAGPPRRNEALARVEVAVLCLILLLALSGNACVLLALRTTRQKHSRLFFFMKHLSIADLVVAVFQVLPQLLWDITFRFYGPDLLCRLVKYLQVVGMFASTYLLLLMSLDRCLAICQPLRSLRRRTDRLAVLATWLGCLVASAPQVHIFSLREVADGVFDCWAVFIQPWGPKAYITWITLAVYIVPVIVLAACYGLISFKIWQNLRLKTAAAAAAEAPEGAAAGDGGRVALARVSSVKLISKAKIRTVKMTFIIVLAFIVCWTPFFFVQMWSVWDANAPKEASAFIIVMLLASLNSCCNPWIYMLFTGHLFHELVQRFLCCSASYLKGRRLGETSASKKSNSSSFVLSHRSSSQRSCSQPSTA

[6] = molecular target: zebrafish vasopressin1-a1 receptor (ZF V1a1R); format: cell-based, zebrafish (Danio rerio)
[7] = molecular target: T4, human vasopressin-1a receptor (hV1aR) (Homo sapiens, UniProt P37288); test: cell-based
T4 construct: host or cells: COS-1
T4 sequence (P37288 whole entry): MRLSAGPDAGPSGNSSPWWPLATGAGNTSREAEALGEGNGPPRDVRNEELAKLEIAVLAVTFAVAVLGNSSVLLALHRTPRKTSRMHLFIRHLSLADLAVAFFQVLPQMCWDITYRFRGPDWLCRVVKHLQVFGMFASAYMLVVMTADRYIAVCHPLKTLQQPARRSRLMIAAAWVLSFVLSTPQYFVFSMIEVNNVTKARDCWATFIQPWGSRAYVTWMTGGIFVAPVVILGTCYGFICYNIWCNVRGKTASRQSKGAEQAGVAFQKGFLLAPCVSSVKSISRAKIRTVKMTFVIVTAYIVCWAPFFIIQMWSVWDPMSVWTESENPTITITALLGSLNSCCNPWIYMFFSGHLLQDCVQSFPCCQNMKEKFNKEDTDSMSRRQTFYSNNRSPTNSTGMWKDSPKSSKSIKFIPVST

[8] = molecular target: T5, human vasopressin2 receptor (hV2R) (Homo sapiens, UniProt P30518); test: cell-based
T5 construct: host or cells: COS-1
T5 sequence (P30518 whole entry): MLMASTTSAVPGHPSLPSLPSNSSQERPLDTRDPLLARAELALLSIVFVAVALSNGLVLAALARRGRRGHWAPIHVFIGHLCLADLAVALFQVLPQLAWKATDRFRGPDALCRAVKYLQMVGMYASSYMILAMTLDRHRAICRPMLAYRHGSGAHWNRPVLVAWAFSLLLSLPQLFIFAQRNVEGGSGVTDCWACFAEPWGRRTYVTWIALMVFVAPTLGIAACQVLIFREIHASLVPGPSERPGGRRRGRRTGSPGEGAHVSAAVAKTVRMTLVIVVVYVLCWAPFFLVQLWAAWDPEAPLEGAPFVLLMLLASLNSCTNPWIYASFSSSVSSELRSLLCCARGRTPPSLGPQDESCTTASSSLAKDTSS

Question: Which EC50 [1] does the source give for CC[C@H](C)[C@@H]1NC(=O)[C@H](Cc2ccc(O)cc2)NC(=O)[C@@H](N)CSSC[C@@H](C(=O)N2CCC[C@H]2C(=O)N[C@@H](CCCNC(=N)N)C(=O)NCC(N)=O)NC(=O)[C@H](CC(N)=O)NC(=O)[C@H](CCC(N)=O)NC1=O [Vasotocin, vasotocin] (HELM PEPTIDE1{C.Y.I.Q.N.C.P.R.G.[am]}$PEPTIDE1,PEPTIDE1,1:R3-6:R3$$$V2.0; N-terminus assumed) here?
Answer: 4.26 nM

Question: What about the “Selectivity hV1bR” value [1] of the same compound?
Answer: hV2R (x28945.5) > ZF V1a1R (x38.8) > ZF oxy (x18.7) > hOTR(x9.8) > ZF V1a2R (x5.7) > hV1bR (x3.7) > ZF V2R (x3.1) > hV1aR

Question: And the EC50 [2]?
Answer: 0.85 nM

Question: What about the “Selectivity ZF oxy” value [2] of the same compound?
Answer: hV2R (x28945.5) > ZF V1a1R (x38.8) > ZF oxy (x18.7) > hOTR(x9.8) > ZF V1a2R (x5.7) > hV1bR (x3.7) > ZF V2R (x3.1) > hV1aR

Question: And the EC50 [3]?
Answer: 2.77 nM

Question: And the “Selectivity ZF V1a2R” value [3]?
Answer: hV2R (x28945.5) > ZF V1a1R (x38.8) > ZF oxy (x18.7) > hOTR(x9.8) > ZF V1a2R (x5.7) > hV1bR (x3.7) > ZF V2R (x3.1) > hV1aR

Question: And the “Selectivity ZF V2R” value [4]?
Answer: hV2R (x28945.5) > ZF V1a1R (x38.8) > ZF oxy (x18.7) > hOTR(x9.8) > ZF V1a2R (x5.7) > hV1bR (x3.7) > ZF V2R (x3.1) > hV1aR

Question: And the EC50 ([4]; read-out: EC50 / affinity at ZF V2R)?
Answer: 5000 nM

Question: What about the EC50 ([4]; read-out: Mean EC50 ZF V2R) of the same compound?
Answer: 5.07 nM

Question: What about the EC50 [5] of the same compound?
Answer: 1.62 nM

Question: And the “Selectivity hOTR” value [5]?
Answer: hV2R (x28945.5) > ZF V1a1R (x38.8) > ZF oxy (x18.7) > hOTR(x9.8) > ZF V1a2R (x5.7) > hV1bR (x3.7) > ZF V2R (x3.1) > hV1aR

Question: What about the EC50 [6] of the same compound?
Answer: 0.41 nM

Question: And the “Selectivity ZF V1a1R” value [6]?
Answer: hV2R (x28945.5) > ZF V1a1R (x38.8) > ZF oxy (x18.7) > hOTR(x9.8) > ZF V1a2R (x5.7) > hV1bR (x3.7) > ZF V2R (x3.1) > hV1aR

Question: What about the EC50 [7] of the same compound?
Answer: 15.9 nM

Question: What about the EC50 [8] of the same compound?
Answer: 0.5 nM

Question: And the “Selectivity hV2R” value [8]?
Answer: hV2R (x28945.5) > ZF V1a1R (x38.8) > ZF oxy (x18.7) > hOTR(x9.8) > ZF V1a2R (x5.7) > hV1bR (x3.7) > ZF V2R (x3.1) > hV1aR

Question: What about the “fold more potent on hV2R than on ZF V2R” value [8] of the same compound?
Answer: ~10,000 fold
